Assay results taken from ChEMBL document CHEMBL5465560, “Selectivity Literature for EUbOPEN Chemogenomic Library” (2024).
Each block holds one compound with its values, some of them ahead of it.

What was measured:
[1] = biological target: T1, Serine/threonine-protein kinase DCLK2 (Homo sapiens) (UniProt Q8N568); assay: Selectivity interaction (Kinase panel (Z-LYTE Assay)) EUB0001632a DCLK2; conditions: at 10 µM
T1 sequence (whole entry): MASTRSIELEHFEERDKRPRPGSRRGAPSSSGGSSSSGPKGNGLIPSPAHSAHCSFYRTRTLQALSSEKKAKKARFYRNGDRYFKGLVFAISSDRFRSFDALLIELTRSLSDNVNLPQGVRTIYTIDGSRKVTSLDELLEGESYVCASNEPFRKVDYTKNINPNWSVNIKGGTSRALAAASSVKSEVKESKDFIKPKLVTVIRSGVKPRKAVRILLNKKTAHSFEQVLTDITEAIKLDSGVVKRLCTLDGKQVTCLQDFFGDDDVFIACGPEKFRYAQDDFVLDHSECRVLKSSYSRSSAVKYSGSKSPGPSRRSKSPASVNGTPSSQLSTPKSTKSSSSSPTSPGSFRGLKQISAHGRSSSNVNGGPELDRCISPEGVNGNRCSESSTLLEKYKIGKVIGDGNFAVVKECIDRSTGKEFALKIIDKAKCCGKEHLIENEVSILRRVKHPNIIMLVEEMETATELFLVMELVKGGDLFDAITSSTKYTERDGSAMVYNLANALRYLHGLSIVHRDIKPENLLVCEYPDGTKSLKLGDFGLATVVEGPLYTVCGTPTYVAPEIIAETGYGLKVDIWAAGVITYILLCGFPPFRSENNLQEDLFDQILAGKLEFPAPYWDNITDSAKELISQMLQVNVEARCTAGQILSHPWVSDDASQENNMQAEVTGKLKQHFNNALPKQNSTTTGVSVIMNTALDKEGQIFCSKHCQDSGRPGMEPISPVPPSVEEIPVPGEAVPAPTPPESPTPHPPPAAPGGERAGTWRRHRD

[2] = biological target: Chromatin remodeling regulator CECR2 (Homo sapiens, UniProt Q9BXF3); assay: Selectivity interaction (Human bromodomain panel (DSF assay)) EUB0000233b CECR2
Chromatin remodeling regulator CECR2, sequence (Q9BXF3 whole entry, looked up): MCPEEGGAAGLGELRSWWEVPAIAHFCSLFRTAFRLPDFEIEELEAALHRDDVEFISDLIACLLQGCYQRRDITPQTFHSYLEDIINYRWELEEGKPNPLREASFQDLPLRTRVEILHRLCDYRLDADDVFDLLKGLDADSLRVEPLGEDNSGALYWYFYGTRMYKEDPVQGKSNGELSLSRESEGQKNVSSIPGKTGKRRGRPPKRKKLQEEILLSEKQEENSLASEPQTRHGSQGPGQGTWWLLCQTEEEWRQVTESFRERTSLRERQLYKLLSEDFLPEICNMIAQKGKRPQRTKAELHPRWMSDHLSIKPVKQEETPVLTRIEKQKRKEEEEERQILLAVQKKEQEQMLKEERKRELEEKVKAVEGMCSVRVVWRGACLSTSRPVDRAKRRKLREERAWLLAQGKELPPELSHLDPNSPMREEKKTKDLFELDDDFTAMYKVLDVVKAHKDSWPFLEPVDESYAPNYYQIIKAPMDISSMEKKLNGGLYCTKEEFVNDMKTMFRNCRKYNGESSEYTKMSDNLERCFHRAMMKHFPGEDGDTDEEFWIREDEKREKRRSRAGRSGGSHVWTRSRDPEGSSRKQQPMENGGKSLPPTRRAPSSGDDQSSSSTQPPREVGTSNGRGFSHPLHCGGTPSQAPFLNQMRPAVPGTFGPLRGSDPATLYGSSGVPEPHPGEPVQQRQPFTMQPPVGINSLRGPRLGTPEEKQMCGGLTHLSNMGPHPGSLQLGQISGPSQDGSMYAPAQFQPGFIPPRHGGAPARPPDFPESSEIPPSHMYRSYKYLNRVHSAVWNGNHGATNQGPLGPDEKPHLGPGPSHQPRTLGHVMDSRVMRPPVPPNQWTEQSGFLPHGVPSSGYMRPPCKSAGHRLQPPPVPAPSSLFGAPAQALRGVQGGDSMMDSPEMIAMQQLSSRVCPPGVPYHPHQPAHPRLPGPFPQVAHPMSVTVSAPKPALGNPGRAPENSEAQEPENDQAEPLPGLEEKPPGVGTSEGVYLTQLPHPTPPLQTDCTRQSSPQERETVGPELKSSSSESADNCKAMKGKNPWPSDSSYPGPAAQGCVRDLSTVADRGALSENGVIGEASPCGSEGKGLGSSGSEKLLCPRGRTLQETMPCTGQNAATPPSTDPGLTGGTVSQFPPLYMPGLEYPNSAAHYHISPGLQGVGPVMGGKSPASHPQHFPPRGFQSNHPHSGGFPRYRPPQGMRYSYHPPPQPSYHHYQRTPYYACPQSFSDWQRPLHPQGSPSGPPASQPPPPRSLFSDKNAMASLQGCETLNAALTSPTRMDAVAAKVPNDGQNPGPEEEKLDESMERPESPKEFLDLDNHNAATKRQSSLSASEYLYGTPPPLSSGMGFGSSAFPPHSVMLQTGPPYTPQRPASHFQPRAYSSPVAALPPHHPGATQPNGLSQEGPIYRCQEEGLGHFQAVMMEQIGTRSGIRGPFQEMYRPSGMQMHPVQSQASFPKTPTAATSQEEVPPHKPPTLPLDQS

[3] = biological target: T2, Lymphokine-activated killer T-cell-originated protein kinase (Homo sapiens) (UniProt Q96KB5); assay: Selectivity interaction (Kinase panel (literature)) EUB0001199aCl PBK; conditions: at 1 µM
T2 sequence (whole entry): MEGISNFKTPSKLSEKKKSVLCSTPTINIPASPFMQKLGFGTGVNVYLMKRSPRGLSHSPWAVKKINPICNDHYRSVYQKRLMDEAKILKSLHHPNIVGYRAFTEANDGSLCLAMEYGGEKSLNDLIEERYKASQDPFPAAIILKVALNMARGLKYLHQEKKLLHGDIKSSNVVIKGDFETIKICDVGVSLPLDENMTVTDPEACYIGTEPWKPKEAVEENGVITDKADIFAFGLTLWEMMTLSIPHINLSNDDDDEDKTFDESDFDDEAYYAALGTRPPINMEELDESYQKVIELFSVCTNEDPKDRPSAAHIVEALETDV

[4] = biological target: T3, Serine/threonine-protein kinase DCLK1 (Homo sapiens) (UniProt O15075); assay: Selectivity interaction (KinomeScan (DiscoverX)) EUB0000607a DCLK1; conditions: at 10 µM
T3 sequence (whole entry): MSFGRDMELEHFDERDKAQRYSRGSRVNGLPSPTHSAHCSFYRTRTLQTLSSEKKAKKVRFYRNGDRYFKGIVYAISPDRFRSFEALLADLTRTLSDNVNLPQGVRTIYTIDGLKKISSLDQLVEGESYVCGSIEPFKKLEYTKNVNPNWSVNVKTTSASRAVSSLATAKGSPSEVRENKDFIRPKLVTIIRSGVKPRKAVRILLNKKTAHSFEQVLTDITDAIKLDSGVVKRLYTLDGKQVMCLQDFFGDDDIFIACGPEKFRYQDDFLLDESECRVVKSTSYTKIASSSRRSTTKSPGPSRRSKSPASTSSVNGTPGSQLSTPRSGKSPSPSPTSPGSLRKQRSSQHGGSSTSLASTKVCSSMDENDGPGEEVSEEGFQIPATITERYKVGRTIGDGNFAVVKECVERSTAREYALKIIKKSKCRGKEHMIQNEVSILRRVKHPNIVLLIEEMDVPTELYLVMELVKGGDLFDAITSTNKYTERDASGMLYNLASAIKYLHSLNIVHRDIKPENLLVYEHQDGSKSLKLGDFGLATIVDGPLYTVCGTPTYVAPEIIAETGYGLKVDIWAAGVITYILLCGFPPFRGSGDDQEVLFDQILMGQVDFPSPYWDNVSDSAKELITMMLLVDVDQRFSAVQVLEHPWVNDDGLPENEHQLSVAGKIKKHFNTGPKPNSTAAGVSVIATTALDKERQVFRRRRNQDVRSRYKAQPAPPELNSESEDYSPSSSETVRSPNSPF

[5] = biological target: Tyrosine-protein kinase Yes (Homo sapiens) (UniProt P07947); assay: Selectivity interaction (ActivX KiNativ screen (kinase selectivity in THP-1 cell lysates)) EUB0000639a YES1; type: subcellular; conditions: lysate
Tyrosine-protein kinase Yes (Homo sapiens), sequence (P07947 2-543 limits assumed): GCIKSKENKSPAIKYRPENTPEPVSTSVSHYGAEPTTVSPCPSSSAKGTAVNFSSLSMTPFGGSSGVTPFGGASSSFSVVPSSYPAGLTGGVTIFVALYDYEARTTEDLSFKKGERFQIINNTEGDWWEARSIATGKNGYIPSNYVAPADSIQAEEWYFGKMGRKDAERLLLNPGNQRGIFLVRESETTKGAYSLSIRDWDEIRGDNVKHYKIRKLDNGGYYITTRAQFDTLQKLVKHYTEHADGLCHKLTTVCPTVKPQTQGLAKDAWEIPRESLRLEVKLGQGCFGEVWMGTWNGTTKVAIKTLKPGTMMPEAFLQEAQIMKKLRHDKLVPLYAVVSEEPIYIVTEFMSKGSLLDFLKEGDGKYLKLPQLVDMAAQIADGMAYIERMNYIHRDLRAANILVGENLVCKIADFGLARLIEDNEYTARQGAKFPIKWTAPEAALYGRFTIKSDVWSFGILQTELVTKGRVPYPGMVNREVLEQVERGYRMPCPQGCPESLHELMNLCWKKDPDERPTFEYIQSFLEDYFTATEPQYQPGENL

[6] = biological target: Serine/threonine-protein kinase 16 (Homo sapiens, UniProt O75716); assay: Selectivity interaction (ProQinase) EUB0000171b STK16
Serine/threonine-protein kinase 16, sequence (O75716 whole entry): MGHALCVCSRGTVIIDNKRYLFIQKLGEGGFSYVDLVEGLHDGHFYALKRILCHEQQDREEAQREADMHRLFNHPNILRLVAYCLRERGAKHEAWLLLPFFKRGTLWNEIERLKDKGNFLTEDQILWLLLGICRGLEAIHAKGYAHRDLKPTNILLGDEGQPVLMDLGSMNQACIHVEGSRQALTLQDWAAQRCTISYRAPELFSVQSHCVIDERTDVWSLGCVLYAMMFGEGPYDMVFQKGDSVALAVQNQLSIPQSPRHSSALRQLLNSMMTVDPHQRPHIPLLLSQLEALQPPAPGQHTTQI

[7] = biological target: Hepatocyte growth factor receptor (Homo sapiens, UniProt P08581); assay: Selectivity interaction (Kinase counterscreening (biochemical assay)) EUB0000604a MET
Hepatocyte growth factor receptor, sequence (P08581 whole entry): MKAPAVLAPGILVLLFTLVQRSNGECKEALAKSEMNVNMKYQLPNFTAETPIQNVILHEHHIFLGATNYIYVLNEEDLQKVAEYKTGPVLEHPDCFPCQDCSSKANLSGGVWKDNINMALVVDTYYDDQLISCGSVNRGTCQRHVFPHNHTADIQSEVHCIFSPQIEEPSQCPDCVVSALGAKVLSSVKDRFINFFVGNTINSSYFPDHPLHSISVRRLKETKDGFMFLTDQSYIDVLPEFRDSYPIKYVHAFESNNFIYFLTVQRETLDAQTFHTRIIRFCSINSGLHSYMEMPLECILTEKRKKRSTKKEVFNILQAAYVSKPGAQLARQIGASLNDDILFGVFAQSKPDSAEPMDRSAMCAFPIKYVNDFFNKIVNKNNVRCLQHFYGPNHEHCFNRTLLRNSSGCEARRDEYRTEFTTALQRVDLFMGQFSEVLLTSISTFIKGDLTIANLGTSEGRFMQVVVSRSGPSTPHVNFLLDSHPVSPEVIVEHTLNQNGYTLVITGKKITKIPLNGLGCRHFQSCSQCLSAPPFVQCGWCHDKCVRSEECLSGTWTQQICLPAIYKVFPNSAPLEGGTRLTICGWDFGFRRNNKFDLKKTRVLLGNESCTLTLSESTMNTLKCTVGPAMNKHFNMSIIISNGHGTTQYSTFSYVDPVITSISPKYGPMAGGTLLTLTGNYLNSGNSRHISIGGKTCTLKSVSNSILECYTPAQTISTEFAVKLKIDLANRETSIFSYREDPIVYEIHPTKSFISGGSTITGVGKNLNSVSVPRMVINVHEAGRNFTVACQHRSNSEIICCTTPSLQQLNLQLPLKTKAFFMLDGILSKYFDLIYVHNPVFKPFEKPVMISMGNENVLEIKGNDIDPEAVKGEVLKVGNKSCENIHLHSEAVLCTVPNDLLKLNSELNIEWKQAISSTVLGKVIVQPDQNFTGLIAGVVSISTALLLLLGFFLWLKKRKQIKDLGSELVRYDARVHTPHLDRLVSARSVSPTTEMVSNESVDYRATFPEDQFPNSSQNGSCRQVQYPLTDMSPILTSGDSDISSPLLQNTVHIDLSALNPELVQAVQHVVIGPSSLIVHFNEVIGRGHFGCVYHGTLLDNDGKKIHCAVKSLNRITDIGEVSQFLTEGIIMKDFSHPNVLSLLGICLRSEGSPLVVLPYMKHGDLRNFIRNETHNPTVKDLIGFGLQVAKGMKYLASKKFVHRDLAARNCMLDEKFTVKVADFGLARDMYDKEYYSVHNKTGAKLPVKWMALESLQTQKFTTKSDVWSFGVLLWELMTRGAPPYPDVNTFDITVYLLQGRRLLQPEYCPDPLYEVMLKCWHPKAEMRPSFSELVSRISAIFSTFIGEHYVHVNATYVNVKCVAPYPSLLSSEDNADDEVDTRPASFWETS

[8] = biological target: Tyrosine-protein kinase ABL2 (Homo sapiens, UniProt P42684); assay: Selectivity interaction (Millipore kinase profiler) EUB0000124b ABL2; conditions: at 10 µM
Tyrosine-protein kinase ABL2, sequence (P42684 whole entry): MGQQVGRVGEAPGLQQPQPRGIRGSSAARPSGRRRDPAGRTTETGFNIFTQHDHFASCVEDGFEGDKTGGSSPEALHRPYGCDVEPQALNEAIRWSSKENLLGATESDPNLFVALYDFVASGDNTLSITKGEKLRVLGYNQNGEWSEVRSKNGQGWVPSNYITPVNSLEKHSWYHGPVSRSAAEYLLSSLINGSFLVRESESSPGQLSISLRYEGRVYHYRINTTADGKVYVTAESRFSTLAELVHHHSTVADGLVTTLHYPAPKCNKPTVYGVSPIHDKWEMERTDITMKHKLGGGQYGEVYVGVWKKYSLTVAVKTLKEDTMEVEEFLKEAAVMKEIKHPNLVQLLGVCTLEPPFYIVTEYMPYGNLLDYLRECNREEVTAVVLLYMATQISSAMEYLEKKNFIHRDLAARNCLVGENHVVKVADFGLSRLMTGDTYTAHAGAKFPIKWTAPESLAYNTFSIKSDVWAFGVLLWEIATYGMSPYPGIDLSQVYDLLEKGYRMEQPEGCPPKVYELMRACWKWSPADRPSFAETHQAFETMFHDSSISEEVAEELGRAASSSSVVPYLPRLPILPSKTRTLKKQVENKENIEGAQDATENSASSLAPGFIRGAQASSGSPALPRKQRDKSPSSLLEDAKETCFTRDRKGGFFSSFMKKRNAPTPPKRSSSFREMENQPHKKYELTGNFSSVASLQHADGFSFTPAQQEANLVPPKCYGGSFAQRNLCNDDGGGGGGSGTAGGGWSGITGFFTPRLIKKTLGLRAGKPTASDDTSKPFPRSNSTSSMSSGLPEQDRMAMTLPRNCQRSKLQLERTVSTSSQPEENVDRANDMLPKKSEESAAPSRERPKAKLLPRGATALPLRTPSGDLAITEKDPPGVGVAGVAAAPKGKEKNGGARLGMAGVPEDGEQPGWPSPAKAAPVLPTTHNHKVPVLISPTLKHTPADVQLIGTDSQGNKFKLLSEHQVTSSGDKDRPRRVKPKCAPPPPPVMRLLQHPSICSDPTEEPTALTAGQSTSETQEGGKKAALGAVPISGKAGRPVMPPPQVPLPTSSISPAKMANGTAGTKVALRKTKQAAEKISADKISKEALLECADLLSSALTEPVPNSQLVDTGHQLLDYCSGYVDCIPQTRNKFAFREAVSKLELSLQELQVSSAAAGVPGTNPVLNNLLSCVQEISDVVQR

[9] = biological target: Cyclin-dependent kinase 1 (Homo sapiens) (UniProt P06493); assay: Selectivity interaction (Kinase panel (KiNativ target engagement assay in Jurkat cells)) EUB0001635a CDK1; type: cell-based; conditions: Selectivity number of off-targets 0.0, Selectivity number of targets 233.0, Source Knowledge https://www.sciencedirect.com/science/article/pii/S2451945619300674?via%3Dihub, at 1 µM

Structure (SMILES): Cn1cc(-n2cnc3c(NCc4nc5cc(Cl)c(Cl)cc5[nH]4)nc(N4CCOCC4)nc32)cn1
% of control [1]: -1.8%

Structure (SMILES): CN1Cc2nccc(-c3cn(C)nc3-c3ccc(F)cc3)c2C1=O
% of inhibition [3]: -3%

Structure (SMILES): CNC(=O)Nc1ccc(-c2nc(N3CC4CCC(C3)O4)c3cnn(C4CCC5(CC4)OCCO5)c3n2)cc1
% of control [4]: 100%

Structure (SMILES): Cc1cnc(Nc2ccc(F)cc2Cl)nc1-c1c[nH]c(C(=O)N[C@H](CO)c2cccc(Cl)c2)c1
Ki [7]: > 4 µM

Structure (SMILES): C=CC(=O)Nc1ccc(C(=O)Nc2[nH]nc3c2CN(C(=O)N[C@H](CN(C)C)c2ccccc2)C3(C)C)cc1
% of engagement [9]: -6.3%

Second part, the compound after the results:

dTM [2]: 11.1 K
Structure (SMILES): CN(C)CCCOc1ccc(-c2cc(NCCCn3cccn3)nc(S(C)(=O)=O)n2)cc1

% of inhibition ([5]; at 0.01 µM): -8.5% | % of inhibition ([5]; at 0.04 µM): -0.2% | % of inhibition ([5]; at 0.2 µM): 0.7% | % of inhibition ([5]; at 1 µM): -11% | % of inhibition ([5]; at 5 µM): -13.3%
Structure (SMILES): CC[C@@H]1[C@H](F)C(=O)N[C@@H]1COc1nccc2cc(C(N)=O)c(OC)cc12 [ZIMLOVISERTIB]

% of control ([6]; at 1 µM): 23% | % of control ([6]; at 5 µM): 6%
Structure (SMILES): C=CC(=O)Nc1cccc(C(=O)Nc2ccc(Nc3cc(-c4[nH]c(SC)nc4C)ccn3)cc2)c1

% of control [8]: 111%
Structure (SMILES): CC(=O)Nc1cccc(-n2c(=O)n(C3CC3)c(=O)c3c(Nc4ccc(I)cc4F)n(C)c(=O)c(C)c32)c1
